The CheMixHub ionic liquid set

Test: xn = mol fraction of the nth substance listed

CCCCCCCCCCCCCCCC[n+]1ccccc1.O=C([O-])c1ccccc1O + CC(C)[C@H](N)C(=O)O + O
electrical conductivity [S/m], 101 kPa
Settings	293.15 K	298.15 K	303.15 K	308.15 K	313.15 K
x2 = 0.0009002, x1 = 3.6e-07	0.000683	0.000771	0.000864	0.000967	0.00108
x2 = 0.0009002, x1 = 7.2e-07	0.000869	0.000983	0.0011	0.00123	0.00136
x2 = 0.0009002, x1 = 1.27e-06	0.00105	0.00118	0.00133	0.00148	0.00164
x2 = 0.0009002, x1 = 1.63e-06	0.00122	0.00138	0.00155	0.00173	0.00192
x2 = 0.0009002, x1 = 1.99e-06	0.00138	0.00156	0.00175	0.00194	0.00215
x2 = 0.0009002, x1 = 2.35e-06	0.00152	0.00174	0.00196	0.00219	0.00243
x2 = 0.0009002, x1 = 2.9e-06	0.00168	0.00193	0.00219	0.00247	0.00274
x2 = 0.0009002, x1 = 3.44e-06	0.00182	0.00207	0.00235	0.00266	0.003
x2 = 0.0009002, x1 = 3.98e-06	0.00195	0.00223	0.00254	0.00287	0.00322
x2 = 0.0009002, x1 = 4.53e-06	0.00208	0.00236	0.00269	0.00303	0.00342
x2 = 0.0009002, x1 = 4.89e-06	–	–	–	0.0032	0.00359
x2 = 0.0009002, x1 = 5.07e-06	0.00218	0.00249	0.00283	–	–
x2 = 0.0009002, x1 = 5.43e-06	0.00228	0.0026	0.00295	0.00334	0.00376
x2 = 0.0009002, x1 = 5.79e-06	0.00238	0.00271	0.00307	0.00346	0.00389
x2 = 0.0009002, x1 = 6.16e-06	0.00246	0.0028	0.00317	0.00358	0.00403
x2 = 0.001799, x1 = 1.8e-07	0.00108	0.00122	0.00138	0.00154	0.00173
x2 = 0.001799, x1 = 3.6e-07	0.00119	0.00135	0.00152	0.00169	0.00189
x2 = 0.001799, x1 = 7.3e-07	0.00132	0.00149	0.00168	0.00188	0.00209
x2 = 0.001799, x1 = 1.09e-06	0.00145	0.00164	0.00185	0.00206	0.0023
x2 = 0.001799, x1 = 1.27e-06	0.00157	0.00178	0.00199	0.00222	0.00248
x2 = 0.001799, x1 = 1.46e-06	0.00171	0.00193	0.00216	0.00242	0.00269
x2 = 0.001799, x1 = 1.64e-06	0.00177	0.002	0.00225	0.00252	0.0028
x2 = 0.001799, x1 = 1.82e-06	0.00183	0.00207	0.00233	0.0026	0.0029
x2 = 0.001799, x1 = 2e-06	0.00188	0.00213	0.0024	0.00268	0.00299
x2 = 0.001799, x1 = 2.18e-06	0.00196	0.00224	0.00252	0.00282	0.00314
x2 = 0.001799, x1 = 2.37e-06	–	0.00234	0.00267	0.00298	0.00332
x2 = 0.001799, x1 = 2.55e-06	0.00205	–	–	–	–
x2 = 0.001799, x1 = 2.73e-06	0.00216	0.00248	–	0.00317	0.00355
x2 = 0.001799, x1 = 3.09e-06	0.00226	0.00258	0.00292	0.0033	0.0037
x2 = 0.001799, x1 = 3.46e-06	0.00234	0.00268	0.00304	0.00342	0.00384

CCCC[n+]1ccn(C)c1.COP(=O)([O-])OC + CCC(=O)O.CCC(=O)[O-].CC[NH+](CC)CCO
101 kPa, x2 = 0
Settings	viscosity [mPa·s]
283.15 K	2142
328.15 K	100.9
343.15 K	52.35
373.15 K	19.25

CCCCCCCCn1cc[n+](C)c1.F[B-](F)(F)F + CCC(C)=O
298.15 K, 101 kPa
Settings	viscosity [mPa·s]
x2 = 0.101	188
x2 = 0.4505	24.78
x2 = 0.7023	5.04
x2 = 0.8033	2.29
x2 = 0.899	1.03

CCCC[n+]1ccn(C)c1.COP(=O)([O-])OC + CCCC(=O)[O-].CC[NH+](CC)CCO
101 kPa, x2 = 0
Settings	viscosity [mPa·s]
298.15 K	609
318.15 K	168.9
328.15 K	100.9
348.15 K	43.18
373.15 K	19.25

CCCC[n+]1ccn(C)c1.COP(=O)([O-])OC + CCCCC(=O)[O-].CC[NH+](CC)CCO
101 kPa, x2 = 0
Settings	viscosity [mPa·s]
303.15 K	426
323.15 K	129.4
328.15 K	100.9
348.15 K	43.18
358.15 K	30.38
368.15 K	22.22
373.15 K	19.25

CCCC[n+]1ccn(C)c1.COP(=O)([O-])OC + CCCCCC(=O)O.CCCCCC(=O)[O-].CC[NH+](CC)CCO
101 kPa, x2 = 0
Settings	viscosity [mPa·s]
298.15 K	609
303.15 K	426
318.15 K	168.9
333.15 K	79.9
358.15 K	30.38
363.15 K	25.86

CCCCCC[n+]1ccn(C)c1.N#Cc1ccc[n-]1 + CCCCCCCCCCCCCC[P+](CCCCCC)(CCCCCC)CCCCCC.O=S(=O)([N-]S(=O)(=O)C(F)(F)F)C(F)(F)F
283.15 K, 100 kPa
Settings	viscosity [mPa·s]
x2 = 0	900
x2 = 0.1	890
x2 = 0.2	880
x2 = 0.501	850
x2 = 0.601	880
x2 = 0.7	850
x2 = 0.8	870
x2 = 0.9	810

[Cl-].[Cl-].[Co+2] + CCCCCCCCCCCCCC[P+](CCCCCC)(CCCCCC)CCCCCC.[Cl-] + CCCCCCCC(=O)O
Settings	viscosity [mPa·s]
296.1 K, 101.3 kPa, x2 = 0.4, x1 = 0.2	8500
